From patent publication US11746116B2, “Antibiotic resistance breakers” (KING'S COLLEGE LONDON, priority 2017, dated 2023) come the findings set out here.

For test [1], the system named is UKA13. Nature of the test: MIC, A. baumannii extended panel. Type of test: cell-based.
Test [2] concerns 13302. Nature of the test: MIC, A. baumannii extended panel. Type of test: cell-based. Conditions: A. baumannii 13302.
The subject of test [3] is A601. The test can be described thus: MIC, A. baumannii extended panel. Type of test: cell-based.
Test [4] relates to UKA16. The test can be described thus: MIC, A. baumannii extended panel. Type of test: cell-based.
Test [5] concerns UKA12. Nature of the test: MIC, A. baumannii extended panel. Type of test: cell-based.
The subject of test [6] is W1. The test can be described thus: MIC, A. baumannii extended panel. Type of test: cell-based.
Test [7] concerns UKA7. The test can be described thus: MIC, A. baumannii extended panel. Type of test: cell-based.
Test [8] relates to UKA1. Nature of the test: MIC, A. baumannii extended panel. Type of test: cell-based.
For test [9], the system named is OXA23.1. The test can be described thus: MIC, A. baumannii extended panel. Type of test: cell-based. The note with it: A. baumannii OXA23.1.
Test [10] has as its system 12156. Nature of the test: MIC, A. baumannii extended panel. Conditions: A. baumannii 12156. Type of test: cell-based.
For test [11], the system named is SA2. Nature of the test: MIC, extended Gram-positive panel. Type of test: cell-based, S. aureus. The note with it: S. aureus SA2.
For test [12], the system named is PA01. The test can be described thus: MIC, microdilution broth method. Type of test: cell-based, Pseudomonas aeruginosa. Conditions: PA01; Normal (no PMBN); in µg/mL. On the technique in general: In broth dilution the organism is exposed to a series of concentrations in liquid medium.
The test system of test [13] is UKA10. Nature of the test: MIC, A. baumannii extended panel. Type of test: cell-based.
Test [14] deals with VSE775. Nature of the test: MIC, microdilution broth method. Type of test: cell-based, Enterococcus faecalis. The note with it: VSE775; in µg/mL.
In test [15] the test system is Ab17978. The test can be described thus: MIC, microdilution broth method. Type of test: cell-based. The note with it: Ab17978; Normal (no PMBN); in µg/mL.
The test system of test [16] is MSSA9144. Nature of the test: MIC, microdilution broth method. Type of test: cell-based, Staphylococcus aureus. Conditions: MSSA9144; in µg/mL.
In test [17] the test system is 13423. Nature of the test: MIC, A. baumannii extended panel. Conditions: A. baumannii 13423. Type of test: cell-based.
In test [18] the test system is VRE12204. The test can be described thus: MIC, microdilution broth method. Type of test: cell-based, Enterococcus faecium. The note with it: VRE12204; in µg/mL.

Structures are written as SMILES. ≈ marks a conversion by molar mass, not a printed value.

Take `Cl.O=C(O)c1cn(C2CC2)c2cc(N3CCN(Cc4ccc(CO)cc4)CC3)c(F)cc2c1=O` [ML-77-158]: the MIC in test [1] was 32 µg/mL; in [2], 64 µg/mL; in test [3] it was 8 µg/mL; in [4] it was 32 µg/mL; in [5], 32 µg/mL; in test [6] it was 32 µg/mL. Besides, the MIC in test [7] was found to be 64 µg/mL; in [8] it was 16 µg/mL; in test [9] it was 64 µg/mL; in [10] it was 0.5 µg/mL.

On to `O=C(O)c1cn(C2CC2)c2cc(N3CCNCC3)c(F)cc2c1=O` [Ciprofloxacin, ciprofloxacin, reference compound], for which the MIC in test [1] was 512 µg/mL (≈ 1550 µM); in [11] it was 1 µg/mL (≈ 3.02 µM); in [12], 0.25; in [5], 512 µg/mL (≈ 1550 µM); in test [13], 256 µg/mL (≈ 773 µM); in test [14], 1. For the same compound, the MIC was above 512 µg/mL in test [7]; 0.25 in test [15]; 0.25 in test [16]; 256 µg/mL (≈ 773 µM) in test [17]; 1 µg/mL (≈ 3.02 µM) in test [10]; 1 in test [18].
